Experiments:
[1] = tested on: D-amphetamine-induced hyperlocomotor response; assay: Amphetamine-induced locomotor activity in rat; type: in vivo, male Sprague-Dawley rats; details: 10 mg/kg PO, 60 min before D-amphetamine SC; activity over two hours
Procedure: The rat amphetamine-induced locomotor hyperactivity test is used to model the enhanced mesolimbic dopaminergic activity thought to contribute to psychosis in humans. […] Male Sprague-Dawley rats (200-250 g) were housed in groups with a 12 h light/dark cycle (lights on at 07.00), at an ambient temperature of 21±2° C. and with standard pelleted diet and water ad libitum. Testing was carried out in the light phase. On the day of the experiment, animals were habituated to the locomotor cages for a 60-minute period.
Locomotor activity was assessed for a two hour period after D-amphetamine treatment. Data are back-transformed means, adjusted for differences between treatment groups in activity during the 30 minutes prior to treatment with test compound or vehicle (n=10-12). Analysis was by general linear model with treatment, cohort and rack as factors. SEMs were calculated from the residuals of the statistical model.
Significant differences vs D-amphetamine are represented as *p<0.05, **p<0.01, ***p<0.001.

[2] = Pharmacokinetic profiling in rat (IV and PO); type: in vivo, male Sprague-Dawley rats; details: male, Sprague-Dawley, plasma, n = 3, mean ± standard deviation
Procedure: The pharmacokinetic profiles of Example 1 were assessed in male Sprague-Dawley rats via intravenous (IV) and oral (per os, PO) routes of delivery. Pharmacokinetic data (mean values±standard deviation) for Example 1 of the invention are detailed in Table 5. Methods: For pharmacokinetic analysis, groups of three male Sprague-Dawley rats, ranging in weight between 200 and 230 g, were administered a single dose of Example 1 via IV or PO route, using the doses, dose volumes and vehicles specified in Table 5. […] WinNonlin v8.2 statistics software (Pharsight Corporation, California, USA) was used to generate pharmacokinetic parameters using non-compartmental analysis.

[3] = Brain penetration in rat (unbound brain-to-plasma ratio, IV); type: in vivo, male Sprague-Dawley rats; details: male, Sprague-Dawley, brain and plasma, 1 mg/kg, 10 min post-dose, n = 3
Procedure: Plasma and brain exposure were evaluated to assess the brain penetration of Example 1, following IV administration. Unbound brain-to-plasma ratio (Kp,uu) was calculated, as detailed in Table 5, following experimental determination of binding in rat plasma and brain homogenate. Methods: For brain penetration assessment, male Sprague-Dawley rats (n=3) were administered a single 1 mg/kg dose (formulated in 10% DMAC+10% Solutol HS15+80% saline) via the IV route. After 10 min post-dose, animals were sacrificed and brains extracted, homogenised with 2 volumes (w/v) of 50 mM sodium phosphate buffer (pH 7.4), and analysed by LC-MS/MS. Blood samples were removed at the same time point via tail vein bleed, centrifuged and the plasma analysed by LC-MS/MS. To permit calculation of unbound brain-to-plasma ratio (Kp,uu), test compound binding in rat plasma and brain homogenate was performed, using Rapid Equilibrium Dialysis (RED). […] Fraction unbound (Fu) in plasma and brain was calculated using the following formula, then used to correct total plasma and brain concentrations to derive the Kp,uu: Fraction bound=(Total plasma or brain ratio)−(Total buffer ratio)/Total plasma or brain ratio Fraction unbound (Fu,brain or plasma)=1−Fraction bound For correction of dilution in brain binding assay: Undiluted Fu,brain=(1/dilution factor)/((1/Fv diluted))−1)+(1/dilution factor) Where dilution factor=4

[4] = tested on: subchronic PCP induced cognitive deficit; assay: Subchronic PCP-induced reversal learning deficit in rat; type: in vivo, female Lister Hooded rats; details: 2 h prior to testing; for reversal of subchronic PCP reversal learning deficit (percent correct responding, reversal phase): vs vehicle-treated subchronic PCP group
Procedure: Testing was carried out in the light phase. Rats underwent operant training firstly to press the left/right lever for a food reward in the presence or absence of a visual cue, and then to respond to the opposite contingency. The reversal learning task was introduced as follows. On the day before each reversal task session, a full 30-minute operant training session was conducted in order to ensure stable responding. In the initial task, animals were first exposed to a five-minute period during which the contingency (cue position relative to active lever) was the same as for the operant training session. This was followed by a 2-minute time-out period, which was signalled by the house-light being turned off. In the subsequent 5-minute period (reversal task), the contingency was reversed. Responses made on the correct and incorrect levers were recorded. Animals undertook several of these reversal learning task sessions before the beginning of the drug studies in order to ensure that they attained a stable level of performance in both phases of the task. […] At this stage, training ceased and rats were treated with PCP (2 mg/kg, IP or vehicle 0.9% saline, IP) for 7 days followed by at least 7-days washout period.
In the initial phase, the reward contingency was the same as the previous day and in the reversal phase the reward contingency was reversed.
Data are presented as mean total number of lever presses (+SEM) and percent correct response (+SEM). […] Statistical significance was assumed when P<0.05 and was determined as follows: one-way ANOVA (IBM SPSS Statistics 22) was performed in order to detect main effect of drug treatment in the initial and reversal tasks. Where a significant effect was detected, a post-hoc LSD t-test was performed in order to compare treatment groups versus the appropriate control in the reversal phase of the test.
Data are shown as mean±s.e.m. % correct responding (n=8-10) and were analysed by ANOVA and post-hoc Student's t-test.
Data are shown as the mean total number of lever presses, correct responses are shown as clear bars and incorrect responses are shown as shaded bars (n=8-10).

O=C1NCCc2c1cnn2-c1ccnc(Cc2cc(F)cc(C(F)(F)F)c2)c1 [Example 1, 1-(2-(3-fluoro-5-(trifluoromethyl)benzyl)pyridin-4-yl)-1,5,6,7-tetrahydro-4H-pyrazolo[4,3-c]pyridin-4-one]
reduction of the D-amphetamine-induced hyperlocomotor response [1]: reached statistical significance at 10 mg/kg
clearance ([2]; Rat IV, 1 mg/kg): 16.4 ± 1 mL/min/kg
bioavailability ([2]; Rat PO, 3 mg/kg): 40.4 ± 6%
Kp uu at 10 min [3]: 0.35 ± 0.03
reversal of subchronic PCP reversal learning deficit (percent correct responding, reversal phase) ([4]; 10 mg/kg PO): significantly (P<0.05−P<0.001) reversed the deficit
reversal of subchronic PCP reversal learning deficit (percent correct responding, reversal phase) ([4]; 30 mg/kg PO): significantly (P<0.05−P<0.001) reversed the deficit
effect on total number of lever presses ([4]; 3, 10 and 30 mg/kg PO, scPCP treated rats): no significant effects

Source: US20230002374A1, “GPR52 MODULATOR COMPOUNDS” (Heptares Therapeutics Limited, priority 2019, published 2023)
